Reference: patent US10479795B2 (Incyte Corporation, priority 2016, dated 2019)
Where a name gives a salt, the structure may show the parent alone. Read-outs that look alike come from different tables or passages of the source.

How the values were obtained:
[1] = biological target: PI3Kγ (p110γ) Recombinant Human Protein (Homo sapiens (Human), UniProt P48736); assay: PI3K-γ Scintillation Proximity Assay; assay type: biochemical; conditions: read-out: PI3Kγ IC50
In short: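 Radiometric SPA readout: […] bound to WGA beads after overnight shaking, IC50 derived from % activity of DMSO control. Reaction used human p110γ, 2 μM ATP, 20 μM PIP2, pH 6.7 MOPS buffer with MgCl2, DTT, CHAPS, 2% DMSO, room temperature.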

[2] = biological target: PI3Kδ (p110δ/p85α) Recombinant Human Protein (Homo sapiens (Human), UniProt O00329); assay: PI3Kδ Scintillation Proximity Assay; assay type: biochemical
Chain of PI3Kδ (p110δ/p85α) Recombinant Human Protein (O00329 whole entry): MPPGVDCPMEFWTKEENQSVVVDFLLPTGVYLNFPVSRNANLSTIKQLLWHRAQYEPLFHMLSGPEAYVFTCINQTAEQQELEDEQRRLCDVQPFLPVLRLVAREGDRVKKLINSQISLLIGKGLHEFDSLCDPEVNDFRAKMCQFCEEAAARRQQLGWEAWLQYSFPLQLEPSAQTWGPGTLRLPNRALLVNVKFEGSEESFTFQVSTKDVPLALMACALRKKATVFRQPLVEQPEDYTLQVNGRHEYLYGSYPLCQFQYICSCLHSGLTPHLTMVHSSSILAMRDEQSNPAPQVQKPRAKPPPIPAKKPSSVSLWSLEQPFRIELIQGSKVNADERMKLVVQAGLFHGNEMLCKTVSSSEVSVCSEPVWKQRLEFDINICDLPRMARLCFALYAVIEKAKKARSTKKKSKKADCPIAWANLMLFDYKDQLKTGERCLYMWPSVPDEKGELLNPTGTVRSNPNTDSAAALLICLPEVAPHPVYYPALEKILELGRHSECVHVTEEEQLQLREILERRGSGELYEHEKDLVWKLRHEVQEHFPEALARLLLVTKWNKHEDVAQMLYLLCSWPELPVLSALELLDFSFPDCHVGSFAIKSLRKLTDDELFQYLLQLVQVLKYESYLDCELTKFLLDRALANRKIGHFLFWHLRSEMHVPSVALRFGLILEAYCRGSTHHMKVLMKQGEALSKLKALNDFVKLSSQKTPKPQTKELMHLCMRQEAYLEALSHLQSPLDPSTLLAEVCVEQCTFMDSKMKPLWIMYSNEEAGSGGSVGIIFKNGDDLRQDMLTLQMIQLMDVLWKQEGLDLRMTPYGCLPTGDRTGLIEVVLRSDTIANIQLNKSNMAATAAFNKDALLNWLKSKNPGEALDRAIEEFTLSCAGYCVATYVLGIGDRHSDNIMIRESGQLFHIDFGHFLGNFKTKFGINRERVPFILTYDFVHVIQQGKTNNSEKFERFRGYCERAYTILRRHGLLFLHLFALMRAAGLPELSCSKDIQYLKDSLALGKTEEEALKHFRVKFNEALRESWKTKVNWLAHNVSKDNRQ
Chain of PI3Kδ (p110δ/p85α) Recombinant Human Protein (P27986 whole entry partner): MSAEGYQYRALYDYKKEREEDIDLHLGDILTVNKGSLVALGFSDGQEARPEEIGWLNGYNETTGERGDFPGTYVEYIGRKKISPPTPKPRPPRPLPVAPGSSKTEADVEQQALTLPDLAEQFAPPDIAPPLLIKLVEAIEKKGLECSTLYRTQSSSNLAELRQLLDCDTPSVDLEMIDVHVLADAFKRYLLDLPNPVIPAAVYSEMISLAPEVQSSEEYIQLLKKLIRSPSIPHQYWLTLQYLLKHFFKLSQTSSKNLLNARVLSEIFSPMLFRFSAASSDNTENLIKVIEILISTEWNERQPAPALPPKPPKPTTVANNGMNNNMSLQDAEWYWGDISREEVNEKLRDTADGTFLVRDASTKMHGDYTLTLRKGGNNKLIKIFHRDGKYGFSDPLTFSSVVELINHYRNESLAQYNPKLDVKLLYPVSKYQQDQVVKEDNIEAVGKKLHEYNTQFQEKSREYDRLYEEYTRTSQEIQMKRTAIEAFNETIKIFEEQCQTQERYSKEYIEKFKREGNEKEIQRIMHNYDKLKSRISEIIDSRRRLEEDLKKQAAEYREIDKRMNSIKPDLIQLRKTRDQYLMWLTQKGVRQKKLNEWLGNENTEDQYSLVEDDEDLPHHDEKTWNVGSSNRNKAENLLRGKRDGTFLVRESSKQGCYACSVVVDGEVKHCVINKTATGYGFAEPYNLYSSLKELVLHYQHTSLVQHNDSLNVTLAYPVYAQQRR
In short: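 Radiometric read-out: 33P-labelled PIP3 product captured on WGA SPA beads and counted, with IC50 fitted from percent activity relative to DMSO control. Enzyme (3.4 nM) was incubated 120 min at room temperature with 20 μM PIP2 and 2 μM ATP at pH 6.7, 2% DMSO.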

[3] = test system: Phosphorylated Ribosomal Protein S6 (RPS6); assay: THP-1 RPS6 ELISA Assay; assay type: cell-based, Human; conditions: THP-1 cells, read-out: PI3Kγ_THP1_RPS6_ELISA IC50
In short: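 IC50 values come from a curve of percent inhibition against log compound concentration, using phospho-RPS6 ELISA (450 nm) on THP-1 lysates. Cells were serum-starved overnight, exposed to compound for 2 h at 37 °C, then challenged 15 min with 10 nM MCP-1.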

Chain of PI3Kγ (p110γ) Recombinant Human Protein (P48736 whole entry): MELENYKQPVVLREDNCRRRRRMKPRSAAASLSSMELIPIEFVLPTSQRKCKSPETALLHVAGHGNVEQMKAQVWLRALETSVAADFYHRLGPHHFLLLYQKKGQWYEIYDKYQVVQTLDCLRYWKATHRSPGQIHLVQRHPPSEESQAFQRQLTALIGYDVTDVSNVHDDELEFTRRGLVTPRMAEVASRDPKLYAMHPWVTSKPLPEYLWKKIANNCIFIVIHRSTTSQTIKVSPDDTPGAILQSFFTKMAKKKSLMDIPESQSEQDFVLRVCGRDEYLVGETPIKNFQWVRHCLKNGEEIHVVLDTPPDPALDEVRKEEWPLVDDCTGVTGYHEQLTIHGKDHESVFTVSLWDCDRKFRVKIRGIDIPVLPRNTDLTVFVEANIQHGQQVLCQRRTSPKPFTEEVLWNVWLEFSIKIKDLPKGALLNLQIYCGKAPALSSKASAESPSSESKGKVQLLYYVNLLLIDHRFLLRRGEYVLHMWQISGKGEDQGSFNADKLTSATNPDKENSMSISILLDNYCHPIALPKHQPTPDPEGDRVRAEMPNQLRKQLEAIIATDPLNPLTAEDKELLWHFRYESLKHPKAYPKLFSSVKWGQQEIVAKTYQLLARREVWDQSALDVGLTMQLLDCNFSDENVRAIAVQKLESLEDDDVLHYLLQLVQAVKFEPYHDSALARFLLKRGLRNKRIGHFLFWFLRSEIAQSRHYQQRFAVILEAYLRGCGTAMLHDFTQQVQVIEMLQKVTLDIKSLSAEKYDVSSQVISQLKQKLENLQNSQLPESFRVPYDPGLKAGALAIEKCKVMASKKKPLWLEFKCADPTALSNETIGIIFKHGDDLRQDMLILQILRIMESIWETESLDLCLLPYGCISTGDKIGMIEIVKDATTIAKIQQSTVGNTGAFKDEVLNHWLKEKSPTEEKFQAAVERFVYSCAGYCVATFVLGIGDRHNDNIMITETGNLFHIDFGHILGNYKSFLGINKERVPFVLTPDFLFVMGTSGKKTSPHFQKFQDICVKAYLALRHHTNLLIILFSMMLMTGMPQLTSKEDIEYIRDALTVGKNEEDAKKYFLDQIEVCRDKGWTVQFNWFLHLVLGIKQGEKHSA

Structure (SMILES) | IC50 [1] [nM] | IC50 [2] [nM] | IC50 ([3]; Homo sapiens) [nM] | IC50 [3] [nM]
Cc1ccc(S(=O)(=O)N2CCC(O)CC2)cc1-c1cnc2c(N)nccn12 [Example 51, 1-{[3-(8-Aminoimidazo[1,2-a]pyrazin-3-yl)-4-methylphenyl]sulfonyl}piperidin-4-ol] | < 100 | 500 to 2000 | > 1000 | 
Cc1ccc(S(=O)(=O)N(C)[C@H]2CC[C@H](O)CC2)cc1-c1cnc2c(N)nccn12 [Example 52, 3-(8-Aminoimidazo[1,2-a]pyrazin-3-yl)-N-(trans-4-hydroxycyclohexyl)-N,4-dimethylbenzenesulfonamide] | < 100 | 100 to 500 | 500 to 1000 | 
CO[C@H]1CC[C@H](NS(=O)(=O)c2ccc(C)c(-c3cnc4c(N)nccn34)c2)CC1 [Example 53, 3-(8-Aminoimidazo[1,2-a]pyrazin-3-yl)-N-(trans-4-methoxycyclohexyl)-4-methylbenzenesulfonamide] | < 100 | 500 to 2000 | > 1000 | 
Cc1ccc(S(=O)(=O)N[C@H]2C[C@H](O)C2)cc1-c1cnc2c(N)nccn12 [Example 54, 3-(8-Aminoimidazo[1,2-a]pyrazin-3-yl)-N-(trans-3-hydroxycyclobutyl)-4-methylbenzenesulfonamide] | < 100 | 100 to 500 | > 1000 | 
Cc1ccc(S(=O)(=O)N[C@H]2CC[C@H](NC(=O)OC(C)(C)C)CC2)cc1-c1cnc2c(N)nccn12 [Example 55, tert-Butyl [trans-4-({[3-(8-aminoimidazo[1,2-a]pyrazin-3-yl)-4-methylphenyl]sulfonyl}amino)cyclohexyl]carbamate] | < 100 | > 2000 | > 1000 | 
Cc1ccc(S(=O)(=O)N[C@H]2C[C@H](CO)C2)cc1-c1cnc2c(N)nccn12 [Example 56, 3-(8-Aminoimidazo[1,2-a]pyrazin-3-yl)-N-[trans-3-(hydroxymethyl)cyclobutyl]-4-methylbenzenesulfonamide] | < 100 | 500 to 2000 | > 1000 | 
Cc1ccc(S(=O)(=O)N[C@H]2CC[C@H](CO)OC2)cc1-c1cnc2c(N)nccn12 [Example 57, 3-(8-Aminoimidazo[1,2-a]pyrazin-3-yl)-N-[(3S,6R)-6-(hydroxymethyl)tetrahydro-2H-pyran-3-yl]-4-methylbenzenesulfonamide] | < 100 | 500 to 2000 | > 1000 | 
Cc1ccc(S(=O)(=O)N[C@H]2CC[C@H](N)CC2)cc1-c1cnc2c(N)nccn12 [Example 58, N-(trans-4-Aminocyclohexyl)-3-(8-aminoimidazo[1,2-a]pyrazin-3-yl)-4-methylbenzenesulfonamide] | 100 to 500 | 500 to 2000 | > 1000 | 
CC(=O)N[C@H]1CC[C@H](NS(=O)(=O)c2ccc(C)c(-c3cnc4c(N)nccn34)c2)CC1 [Example 59, N-[trans-4-({[3-(8-Aminoimidazo[1,2-a]pyrazin-3-yl)-4-methylphenyl]sulfonyl}amino)cyclohexyl]acetamide] | < 100 | 500 to 2000 | > 1000 | 
Cc1ccc(S(=O)(=O)N[C@H]2C[C@H](CO)C2)cc1-c1cnc2c(N)ncnn12 [Example 60, 3-(4-Aminoimidazo[1,2-f][1,2,4]triazin-7-yl)-N-[trans-3-(hydroxymethyl)cyclobutyl]-4-methylbenzenesulfonamide] | < 100 | 100 to 500 |  | 100 to 500
Cc1ccc(S(=O)(=O)N[C@H]2C[C@@H](CO)C2)cc1-c1cnc2c(N)ncnn12 [Example 61, 3-(4-Aminoimidazo[2,1-f][1,2,4]triazin-7-yl)-N-[cis-3-(hydroxymethyl)cyclobutyl]-4-methylbenzenesulfonamide] | < 100 | 500 to 2000 | 500 to 1000 | 
Cc1ccc(S(=O)(=O)N[C@H]2CC[C@H](CO)OC2)cc1-c1cnc2c(N)ncnn12 [Example 62, 3-(4-Aminoimidazo[2,1-f][1,2,4]triazin-7-yl)-N-[(3S,6R)-6-(hydroxymethyl)tetrahydro-2H-pyran-3-yl]-4-methylbenzenesulfonamide] | < 100 | 100 to 500 | 100 to 500 | 
Cc1ccc(S(=O)(=O)N[C@H]2CC[C@@H](O)CC2)cc1-c1cnc2c(N)ncnn12 [Example 63, 3-(4-Aminoimidazo[2,1-f][1,2,4]triazin-7-yl)-N-(cis-4-hydroxycyclohexyl)-4-methylbenzenesulfonamide] | < 100 | 100 to 500 | 100 to 500 | 
Cc1ccc(S(=O)(=O)NC2CC2)cc1-c1cnc2c(N)ncnn12 [Example 64, 3-(4-Aminoimidazo[2,1-f][1,2,4]triazin-7-yl)-N-cyclopropyl-4-methylbenzenesulfonamide] | < 100 | > 2000 | > 1000 | 
Cc1ccc(S(=O)(=O)NCCCO)cc1-c1cnc2c(N)ncnn12 [Example 65, 3-(4-Aminoimidazo[2,1-f][1,2,4]triazin-7-yl)-N-(3-hydroxypropyl)-4-methylbenzenesulfonamide] | < 100 | > 2000 | > 1000 | 
Cc1ccc(S(=O)(=O)NC2CCOCC2)cc1-c1cnc2c(N)ncnn12 [Example 68, 3-(4-Aminoimidazo[2,1-f][1,2,4]triazin-7-yl)-4-methyl-N-(tetrahydro-2H-pyrazn-4-yl)benzenesulfonamide] | < 100 | 500 to 2000 |  | 500 to 1000
Cc1ccc(S(=O)(=O)N(C)[C@H]2CC[C@H](O)CC2)cc1-c1cnc2c(N)ncnn12 [Example 69, 3-(4-Aminoimidazo[2,1-f][1,2,4]triazin-7-yl)-N-(trans-4-hydroxycyclohexyl)-N,4-dimethylbenzenesulfonamide] | < 100 | 500 to 2000 | 100 to 500 | 
CO[C@H]1CC[C@H](NS(=O)(=O)c2ccc(C)c(-c3cnc4c(N)ncnn34)c2)CC1 [Example 70, 3-(4-Aminoimidazo[2,1-f][1,2,4]triazin-7-yl)-N-(trans-4-methoxycyclohexyl)-4-methylbenzenesulfonamide] | < 100 | 500 to 2000 | > 1000 | 
Cc1ccc(S(=O)(=O)N[C@H]2C[C@H](O)C2)cc1-c1cnc2c(N)ncnn12 [Example 71, 3-(4-Aminoimidazo[2,1-f][1,2,4]triazin-7-yl)-N-(trans-3-hydroxycyclobutyl)-4-methylbenzenesulfonamide] | < 100 | > 2000 | 100 to 500 | 
Cc1ccc(S(=O)(=O)N[C@H]2CC[C@H](NC(=O)OC(C)(C)C)CC2)cc1-c1cnc2c(N)ncnn12 [Example 72, tert-Butyl [trans-4-({[3-(4-aminoimidazo[2,1-f][1,2,4]triazin-7-yl)-4-methylphenyl]sulfonyl}amino)cyclohexyl]carbamate] | < 100 | > 2000 | > 1000 | 
Cc1ccc(S(=O)(=O)N[C@H]2CC[C@H](N)CC2)cc1-c1cnc2c(N)ncnn12 [Example 73, bis-hydrochloride] | < 100 | 500 to 2000 | > 1000 | 
CC(=O)N[C@H]1CC[C@H](NS(=O)(=O)c2ccc(C)c(-c3cnc4c(N)ncnn34)c2)CC1 [Example 74, N-[trans-4-({[3-(4-Aminoimidazo[2,1-f][1,2,4]triazin-7-yl)-4-methylphenyl]sulfonyl}amino)cyclohexyl]acetamide] | < 100 | 500 to 2000 | > 1000 | 
Cc1cc(-c2cn3c(-c4cc(S(=O)(=O)N[C@H]5CC[C@H](O)CC5)ccc4C)cnc3c(N)n2)on1 [Example 75, 3-[8-Amino-6-(3-methylisoxazol-5-yl)imidazo[1,2-a]pyrazin-3-yl]-N-(trans-4-hydroxycyclohexyl)-4-methylbenzenesulfonamide] | < 100 | < 100 | 100 to 500 | 
Cc1ccc(S(=O)(=O)N[C@H]2CC[C@H](O)CC2)cc1-c1cnc2c(N)nc(-c3cnn(CC(F)(F)F)c3)cn12 [Example 76, 3-{8-amino-6-[1-(2,2,2-trifluoroethyl)-1H-pyrazol-4-yl]imidazo[1,2-a]pyrazin-3-yl}-N-(trans-4-hydroxycyclohexyl)-4-methylbenzenesulfonamide] | < 100 | 100 to 500 | 100 to 500 | 
Cc1ccc(S(=O)(=O)N[C@H]2CC[C@H](O)CC2)cc1-c1cnc2c(N)nc(-c3c(C)noc3C)cn12 [Example 77, 3-[8-amino-6-(3,5-dimethylisoxazol-4-yl)imidazo[1,2-a]pyrazin-3-yl]-N-(trans-4-hydroxycyclohexyl)-4-methylbenzenesulfonamide] | < 100 | 100 to 500 | 100 to 500 | 
Cc1ccc(S(=O)(=O)N[C@H]2CC[C@H](O)CC2)cc1-c1cnc2c(N)nc(-c3cnn(C(C)(C)C#N)c3)cn12 [Example 78, 3-{8-amino-6-[1-(1-cyano-1-methylethyl)-1H-pyrazol-4-yl]imidazo[1,2-a]pyrazin-3-yl}-N-(trans-4-hydroxycyclohexyl)-4-methylbenzenesulfonamide] | < 100 | 100 to 500 | 500 to 1000 | 
